# Measurements as given in US12063914B2, “DNA sequence that increases odorant receptor representation in the olfactory system” (Research Foundation of the City University of New York, priority 2015, dated 2024).
# Key:
# M71 = biological target: T1, M71 (Mus musculus, UniProt Q60893); conditions: previous ex vivo data; liquid phase; cited from earlier work
# T1 construct: from ex vivo analysis of genetically defined M71 OSNs in gene-targeted mice; host or cells: dendritic knobs of M71-expressing olfactory sensory neurons from gene-targeted mice
# T1 sequence (Q60893 1-309): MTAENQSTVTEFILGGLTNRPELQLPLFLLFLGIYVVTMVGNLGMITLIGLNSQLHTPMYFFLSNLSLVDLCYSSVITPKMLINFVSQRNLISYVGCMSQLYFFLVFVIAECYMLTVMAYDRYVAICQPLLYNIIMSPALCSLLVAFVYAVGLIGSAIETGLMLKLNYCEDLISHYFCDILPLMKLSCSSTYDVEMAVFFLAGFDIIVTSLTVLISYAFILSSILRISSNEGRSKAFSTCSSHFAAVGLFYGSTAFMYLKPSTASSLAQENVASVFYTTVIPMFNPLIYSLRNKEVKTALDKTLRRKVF
# [1] = at 25° C.; cited from earlier work
# M71 OR = biological target: T2, M71 OR (Mus musculus, UniProt Q60893); assay: In vivo synaptophluorin (SpH) imaging of odor-evoked glomerular activity in 4•M71Cα mice; conditions: for glomerular activity (in vivo SpH imaging): 4•M71Cα animals, vapor phase, odor dilutions 0% to 15%; for average highest (dF/F)max: hemizygous 4•M71Cα animals, ACP at 1.77 uM, 24dMACP at 0.66 uM; for average highest (dF/F)max / highest efficacy [(dF/F)max]: 4MACP at 0.69 uM; for efficacy [average (dF/F)max]: delivered at the same concentration, ˜0.70 uM; for highest efficacy [(dF/F)max]: homozygous 4•M71Cα animals, ACP at 2.66 uM, 24dMACP at 0.46 uM; for efficacy [(dF/F)max]: 0.71 uM; for response [(dF/F)max] at highest concentration delivered: 2.66 uM
# T2 construct: the increase of OSNs expressing the M71 OR results in the coalescence of labeled axons; expressed in transfected cells; host or cells: olfactory sensory neurons of living transgenic mice (4•M71Cα, 5•M71Cα), made by pronuclear injection of the M71 minigene
# T2 sequence (Q60893 1-309): T1 sequence (Q60893 1-309)
# Source text: Because the M71 OR is dorsally expressed in the olfactory bulb, any cloned OR using the M71 transgenic backbone will coalesce its axons onto dorsally located glomeruli, which makes them accessible for optical imaging. Optical imaging was therefore used to functionally characterize transgenic M71 projections in the OB. To examine their functional properties odor-evoked activity was imaged from the OBs of mice expressing the genetically encoded activity reporter SpH in all mature OSNs. Simultaneously recordings were obtained from mice that are either hemizygous or homozygous for 4•M71Cα (gene-targeted M71-GFP is out crossed) and heterozygous for SpH and identify red M71 glomeruli. Seven different M71-selective ligands were used from ex vivo analysis of genetically defined M71 OSNs in gene-targeted mice: three of these ligands produced responses by SpH imaging: Acetophenone (ACP), 4-methyl acetophenone (4MACP) and 2,4-dimethyl acetophenone (24dMACP) when delivered at different odor dilutions varying between 0% and 15%. The maximum change in fluorescence [(dF/F)max] per odor concentration was calculated for each compound over a 14 s trial period having a pre-odor (3 s), odor (4 s) and post-odor (4 s) acquisition. dF/F values for all glomeruli were calculated with a standardized 50 μm window, which is fully contained in all imaged glomeruli of both hemi and homo 4•M71Cα animals. (FIG. 2A, FIG. 2B and FIG. 2C: Each data point represents the average (dF/F). of 4-16 glomeruli imaged). […] All imaged mice are heterozygous for omp-SpH.
# Olfactometry: Odors (purchased form Sigma Aldrich) were delivered using a custom built olfactometer controlled by an Arduino board with custom shields operating Teflon solenoids (Neptune Research) and connected to two Mass Flow Controllers (Alicat Scientific, Inc) to dilute the clean air (N2, max flow is 2 Lpm) and to dilute the odorized air (max flow is 300 SCCM). Nitrogen (N2) was used as the vapor carrier to avoid oxidation. Odor concentrations are expressed a % dilutions of saturated vapor and as molar saturated vapor concentration (μM s.v.), calculated using published vapor pressures at 25° Celsius (US EPA, Estimation Programs Interface Suite, v 4.0. Flow diluted odors were delivered at 2 Lpm mixed prior to the delivery site with air odorized with varying dilutions of odorant taken from the saturated headspace of pre-cleaned amber vials with white polypropylene closures and septum (J. G. Finneran) containing 99% pure odorants. To avoid contamination of the olfactometer, odorized air was never passed through the Teflon valves. Instead, odors were mixed with N2 in T-shaped mixing chambers (Neptune Research) and delivered to the animal's nose using an arduino controlled vacuum system. […] Output of the olfactometer was calibrated using the tracer odor Pinene and a photoionization detector (PID; Aurora Scientific).
# In vivo SpH Imaging: Mice were anesthetized using Ketamine (100 mg/kg)/Xylazin (5 mg/kg) and maintained with Isoflurane (2.5% in 02) and immobilized using a stereotactic head holding device (Narishige, Inc.). Optical signals for SpH and mCherry were recorded using an ANDOR Neo 5.5 sCMOS camera connected to a NIKON AZ100 epifluorescence microscope (NIS Elements) with a 4× objective (numerical aperture 0.4). Excitation wavelengths of 475 nm for SpH and 575 nm for mCherry and emission of 520 nm for SpH and 635 nm for mCherry were used to obtain images of the dorsolateral bulb through thinned skull overlaying the bulb of a freely breathing animal. Each imaging trial consisted of a pre-odor (3 s), odor (4 s) and post-odor (4 s) acquisition, with a total acquisition time per trial of 14 s (including 3 s of valve switch delay). Using serial code, the arduino controlling the olfactometer was integrated in the NIS Elements software, so that the entire image acquisition sequence and flow-diluted odor delivery is controlled by the microscope software. […]
# human OR1A1 receptor = biological target: T3, human OR1A1 receptor (Homo sapiens, UniProt Q9P1Q5); assay: Two-bottle behavioral avoidance task with (−)-Carvone in 5•OR1A1Cβ mice; type: in vivo, mouse
# T3 construct: expressed in transfected cells; host or cells: olfactory sensory neurons of living 5•OR1A1Cβ hemizygous transgenic mice
# T3 sequence (Q9P1Q5 1-309): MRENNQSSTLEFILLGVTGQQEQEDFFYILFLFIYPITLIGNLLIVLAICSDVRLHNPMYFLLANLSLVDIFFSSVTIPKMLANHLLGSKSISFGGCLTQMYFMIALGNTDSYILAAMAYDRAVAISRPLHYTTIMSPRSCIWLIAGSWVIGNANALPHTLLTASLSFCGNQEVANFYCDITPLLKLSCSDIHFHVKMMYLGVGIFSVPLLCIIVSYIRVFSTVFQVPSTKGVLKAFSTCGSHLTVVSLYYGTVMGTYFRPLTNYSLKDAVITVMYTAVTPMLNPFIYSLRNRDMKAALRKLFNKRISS
# Source text: To further evaluate the versatility of this platform, the probability of choice of expression of a human OR was increased by cloning OR1A1 into the 5×21 M71 transgenic backbone. […] Again omp levels were not changed. Clearly, the representation of some ORs must be decreased to explain this equilibrium. In the 4•M71Cα homo animals, a mere 2-log increase in M71 RNA levels leads to a detectable 0.3-log change in threshold. Therefore, without wishing to be bound to any particular theory, it is believed that further increases in the neuronal representation of specific ORs may decrease detection thresholds even more. However, a delicate balance must exist between cell number and sensitivity. This hypothesis was tested using the established two-bottle behavioral avoidance task with the 5•OR1A1Cβ mice (FIG. 3B). Conditioning of 5•OR1A1Cβ hemi animals (n=12) was performed and their WT littermates (n=7) to water containing a 10-4 dilution of (−)-Carvone, a known OR1A1 ligand. For four consecutive days, animals were given the choice between plain water and water with decreasing (10-4, 10-6, 10-7 and 10-8) dilutions of (−) Carvone (FIG. 3C). Both groups (WT and Hemi) show clear aversion towards a 10^−4 dilution of (−)-Carvone (AVG PI WT=6.17% and AVG PI hemi=10.26%), reflecting successful conditioning. Both WT (AVG PI=55.52%) and Hemi (AVG PI=47.88%) cannot detect a 10^−8 dilution of (−)-Carvone. At 10^−6 and 10^−7 however, there is a clear difference in detection between WT and Hemi (10^−6: AVG PI WT=27.65% vs. AVG PI Hemi=11.41, Student's T-test p<0.01 and 10^−7: AVG PI WT=53.88% vs. AVG PI Hemi=30.24, Student's T-test p<0.05). […] These findings indicate that expressing OR1A1 in about 40% of the OSNs translates into a 2-log difference in (−)-Carvone detection thresholds.
# Olfactory behavior test: A two-bottle discrimination test was performed as previously described. Since the mice are tested for the ability to detect a single odor in drinking water at increasingly lower concentrations, this discrimination assay is also considered a detection threshold test. Mice 8 weeks old were individually housed and given food ad libitum but restricted access to saccharin-phthalic acid solution (2.1×10^−2 M sodium saccharin and 10^−3M phthalic acid pH 6.5) for 1 h twice a day for two days before the assay begins. This ensures mice would commence drinking the solution during the conditioning. On day 3 (conditioning day) mice are exposed to sodium saccharine phthalic acid (SSPA) solution with 1 dilution of odorized water for 10 minutes. Immediately after, they are injected with lithium chloride intraperitoneally (15 μl/g body weight of a 0.6 M solution) to induce the aversive malaise and lethargy state. After two hours mice are returned to their home cage and given access to two bottles of drinking water; they are given the choice between SSPA solution containing a 10^−4 dilution of the odor versus the non-odorized SSPA solution. During the following 3 days, every 24 hours, the location of the bottles is reversed and the concentration of the odorized solution is decreased to 10^−6, 10^−7 and 0.5×10^−6, respectively. Every day both bottles are weighed to determine the amount of liquid consumed. A preference index was calculated as the amount of odorized solution consumed divided by the total amount of water solution consumed for each mouse for every 24 hour test period at each odor concentration. Student's t test was performed to test statistical significance, assuming two-tailed distribution and two-sample unequal variance. Values are mean±SEM and are plotted on a LOG scale.
smiles,measurement,setting,value
O=Cc1ccccc1 [benzaldehyde],elicit a M71 response ex vivo,M71,did
same,ex vivo responder grade,M71,low responder
CCc1occc(=O)c1O [ethylmalthol],elicit a M71 response ex vivo,M71,did
CC(C)[C@@H]1CC[C@@H](C)CC1=O [menthone],elicit a M71 response ex vivo,M71,did not
COc1ccc(C(C)=O)cc1 [4-metoxyacetophenone],elicit a M71 response ex vivo,M71,did
same,ex vivo responder grade,M71,high responder
same,saturated vapor pressure (Ps),[1],0.0133 mmHg
same,glomerular activity (in vivo SpH imaging),M71 OR,does not show glomerular activation
"CC(=O)c1ccc(C)cc1 [4MACP, 4-methyl acetophenone]",elicit a M71 response ex vivo,M71,did
same,saturated vapor pressure (Ps),[1],0.0849 mmHg
same,glomerular activity (in vivo SpH imaging),M71 OR,observed
same,average highest (dF/F)max,M71 OR,4.48%
same,efficacy [average (dF/F)max],M71 OR; hemizygous animals,4.48%
same,highest efficacy [(dF/F)max],M71 OR,3.82%
same,average efficacy (of all concentrations and odors),M71 OR; homozygous animals,3.83%
"CC(=O)c1ccccc1 [ACP, Acetophenone]",elicit a M71 response ex vivo,M71,did
same,saturated vapor pressure (Ps),[1],0.3260 mmHg
same,glomerular activity (in vivo SpH imaging),M71 OR,observed
same,average highest (dF/F)max,M71 OR,3.49%
same,efficacy [(dF/F)max],M71 OR; hemizygous animals,0.73%
same,efficacy [average (dF/F)max],M71 OR; hemizygous animals,0.73%
same,response [(dF/F)max] at highest concentration delivered,M71 OR; heterozygous (hemizygous) animals,3.46%
same,highest efficacy [(dF/F)max],M71 OR,4.57%
same,efficacy [(dF/F)max],M71 OR; homozygous animals,3.00%
same,response [(dF/F)max] at highest concentration delivered,M71 OR; homozygous animals,4.57%
COC(=O)c1ccccc1 [methylbenzoate],elicit a M71 response ex vivo,M71,did not
NCC(=O)c1ccccc1 [2 amino acetophenone],elicit a M71 response ex vivo,M71,did
"C=C(C)C1CC=C(C)C(=O)C1 (single isomer, unassigned; (-)) [(−)-Carvone]",difference in detection thresholds,human OR1A1 receptor; 5•OR1A1Cβ hemi vs WT,2 log
same,AVG PI,"human OR1A1 receptor; 5•OR1A1Cβ hemi, 10^−4 dilution",10.26%
same,AVG PI,"human OR1A1 receptor; 5•OR1A1Cβ hemi, 10^−6 dilution",11.41
same,AVG PI,"human OR1A1 receptor; 5•OR1A1Cβ hemi, 10^−7 dilution",30.24
same,AVG PI,"human OR1A1 receptor; 5•OR1A1Cβ hemi, 10^−8 dilution",47.88%
same,AVG PI,"human OR1A1 receptor; WT littermates, 10^−4 dilution",6.17%
same,AVG PI,"human OR1A1 receptor; WT littermates, 10^−6 dilution",27.65%
same,AVG PI,"human OR1A1 receptor; WT littermates, 10^−7 dilution",53.88%
same,AVG PI,"human OR1A1 receptor; WT littermates, 10^−8 dilution",55.52%
